How the values were obtained:
ABUTH (Velvetleaf) = assay: Postemergence herbicidal evaluation; assay type: in vivo, Abutilon theophrasti; settings: postemergence
How it was run: (§1)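 Compound is applied as a foliar spray to seedlings about two weeks old, formulated in equal parts acetone and water with 0.5% TWEEN 20 and delivered at 40 psi to give about 0.0156–0.500 kg per hectare. Injury is rated visually 0–9 after four to five weeks.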

AMBEL (Ragweed, Common) = assay: Postemergence herbicidal evaluation; assay type: in vivo, Ambrosia artemisifolia; settings: postemergence
How it was run: as §1

[1] = tested on: IPOHE (Morningglory, Ivyleaf); assay: Postemergence herbicidal evaluation; assay type: in vivo, Ipomoea hederacea; settings: postemergence
How it was run: as §1

ECHCG (Barnyardgrass) [2] = assay: Postemergence herbicidal evaluation; assay type: in vivo, Echinochloa crus-galli; settings: postemergence
How it was run: as §1

SETVI (Foxtail, Green) = assay: Postemergence herbicidal evaluation; assay type: in vivo, Setaria viridis; settings: postemergence
How it was run: as §1

[3] = tested on: GLXMAW (Soybean, Williams); assay: Postemergence herbicidal evaluation; assay type: in vivo, Glycine max, (L.) Merr. cv Williams; settings: postemergence
How it was run: as §1

[4] = tested on: TRZAWR (Wheat, Winter, cv Riband); assay: Postemergence herbicidal evaluation; assay type: in vivo, Triticum aestivum; settings: postemergence
How it was run: as §1

CASOB (Sicklepod) = assay: Preemergence herbicidal evaluation; assay type: in vivo, Cassia obtusifolia; settings: preemergence, rated 4-5 weeks after treatment, 0-9 scale
How it was run: (§2)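 Herbicidal effect scored visually, 0-9, at 4 to 5 weeks against a control; compound applied preemergence by aqueous acetone spray to seeded soil at about 0.0156 to 0.500 kg/ha.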

[5] = tested on: CHEAL (Lambsquarters, Common); assay: Preemergence herbicidal evaluation; assay type: in vivo, Chenopodium album; settings: preemergence, rated 4-5 weeks after treatment, 0-9 scale
How it was run: as §2

GALAP (Galium) = assay: Preemergence herbicidal evaluation; assay type: in vivo, Galium aparine; settings: preemergence, rated 4-5 weeks after treatment, 0-9 scale
How it was run: as §2

[6] = tested on: IPOHE (Morningglory, Ivyleaf); assay: Preemergence herbicidal evaluation; assay type: in vivo, Ipomoea hederacea; settings: preemergence, rated 4-5 weeks after treatment, 0-9 scale
How it was run: as §2

ECHCG (Barnyardgrass) [7] = assay: Preemergence herbicidal evaluation; assay type: in vivo, Echinochloa crus-galli; settings: preemergence, rated 4-5 weeks after treatment, 0-9 scale
How it was run: as §2

ZEAMX (Corn, Field) = assay: Preemergence herbicidal evaluation; assay type: in vivo, Zea mays; settings: preemergence, rated 4-5 weeks after treatment, 0-9 scale
How it was run: as §2

[8] = tested on: ECHORC (Watergrass (Calif.)); assay: Postemergence weed control under flooded paddy conditions; assay type: in vivo, Echinochloa oryzoides; settings: postemergence weeds, rated 3 to 4 weeks after treatment
How it was run: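 Injury ratings (0–9 scale covering stand, vigor, malformation, size, chlorosis and overall appearance versus control) were made three to four weeks after treatment. Test material, about 0.0313 to 0.500 kg/ha a.i. in 50/50 v/v aqueous/acetone, was added to flood water 1.5 to 3 cm deep over 3 to 5 cm weeds and 1.5 to 2.5 leaf rice.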

CCOC(=O)CN1C(=O)C(CC(=O)OCCF)SC1=Nc1cc(-n2c(=O)cc(C(F)(F)F)n(C)c2=O)c(F)cc1Cl (stereo not shown) [Compound 82, 2-{{2-Chloro-5-[3,6-dihydro-3-methyl-2,6-dioxo-4-(trifluoromethyl)-1(2H)-pyrimidinyl]-4-fluoro-phenyl}imino}-4-oxo-3,5-thiazolidinediacetic acid, 3-ethyl 2-fluoroethyl ester] gave an ABUTH herbicidal rating (ABUTH (Velvetleaf); rate 0.0158 kg/ha) of 9.0, an ABUTH herbicidal rating (ABUTH (Velvetleaf); rate 0.0315 kg/ha) of 9.0 and an ABUTH herbicidal rating (ABUTH (Velvetleaf); rate 0.0630 kg/ha) of 9.0. It also gave an AMBEL herbicidal rating (AMBEL (Ragweed, Common); rate 0.0158 kg/ha) of 9.0, an AMBEL herbicidal rating (AMBEL (Ragweed, Common); rate 0.0315 kg/ha) of 9.0 and an AMBEL herbicidal rating (AMBEL (Ragweed, Common); rate 0.0630 kg/ha) of 9.0. The IPOHE herbicidal rating ([1]; rate 0.0158 kg/ha) was 9.0, the IPOHE herbicidal rating ([1]; rate 0.0315 kg/ha) was 9.0 and the IPOHE herbicidal rating ([1]; rate 0.0630 kg/ha) was 9.0. It also gave an ECHCG herbicidal rating (ECHCG (Barnyardgrass) [2]; rate 0.0158 kg/ha) of 9.0, an ECHCG herbicidal rating (ECHCG (Barnyardgrass) [2]; rate 0.0315 kg/ha) of 9.0 and an ECHCG herbicidal rating (ECHCG (Barnyardgrass) [2]; rate 0.0630 kg/ha) of 9.0. It also gave an SETVI herbicidal rating (SETVI (Foxtail, Green); rate 0.0158 kg/ha) of 9.0, an SETVI herbicidal rating (SETVI (Foxtail, Green); rate 0.0315 kg/ha) of 9.0 and an SETVI herbicidal rating (SETVI (Foxtail, Green); rate 0.0630 kg/ha) of 9.0. It also gave a GLXMAW herbicidal rating ([3]; rate 0.0158 kg/ha) of 8.5, a GLXMAW herbicidal rating ([3]; rate 0.0315 kg/ha) of 9.0 and a GLXMAW herbicidal rating ([3]; rate 0.0630 kg/ha) of 9.0. It also gave a TRZAWR herbicidal rating ([4]; rate 0.0158 kg/ha) of 7.5, a TRZAWR herbicidal rating ([4]; rate 0.0315 kg/ha) of 7.5 and a TRZAWR herbicidal rating ([4]; rate 0.0630 kg/ha) of 8.5. For the same compound, the CASOB rating (CASOB (Sicklepod); 0.0156 kg/ha) was 0.0, the CASOB rating (CASOB (Sicklepod); 0.0313 kg/ha) was 0.0 and the CASOB rating (CASOB (Sicklepod); 0.0625 kg/ha) was 3.0. The CASOB rating (CASOB (Sicklepod); 0.1250 kg/ha) was 9.0, the CASOB rating (CASOB (Sicklepod); 0.2500 kg/ha) was 9.0 and the CHEAL rating ([5]; 0.0156 kg/ha) was 9.0. The CHEAL rating ([5]; 0.0313 kg/ha) was 9.0, the CHEAL rating ([5]; 0.0625 kg/ha) was 9.0 and the CHEAL rating ([5]; 0.1250 kg/ha) was 9.0. For the same compound, the CHEAL rating ([5]; 0.2500 kg/ha) was 9.0, the GALAP rating (GALAP (Galium); 0.0156 kg/ha) was 0.0 and the GALAP rating (GALAP (Galium); 0.0313 kg/ha) was 0.0. It also gave a GALAP rating (GALAP (Galium); 0.0625 kg/ha) of 0.0, a GALAP rating (GALAP (Galium); 0.1250 kg/ha) of 9.0 and a GALAP rating (GALAP (Galium); 0.2500 kg/ha) of 9.0. For the same compound, the IPOHE rating ([6]; 0.0156 kg/ha) was 0.0, the IPOHE rating ([6]; 0.0313 kg/ha) was 0.0 and the IPOHE rating ([6]; 0.0625 kg/ha) was 4.0. For the same compound, the IPOHE rating ([6]; 0.1250 kg/ha) was 9.0, the IPOHE rating ([6]; 0.2500 kg/ha) was 9.0 and the ECHCG rating (ECHCG (Barnyardgrass) [7]; 0.0156 kg/ha) was 0.0. For the same compound, the ECHCG rating (ECHCG (Barnyardgrass) [7]; 0.0313 kg/ha) was 0.0, the ECHCG rating (ECHCG (Barnyardgrass) [7]; 0.0625 kg/ha) was 0.0 and the ECHCG rating (ECHCG (Barnyardgrass) [7]; 0.1250 kg/ha) was 3.0. For the same compound, the ECHCG rating (ECHCG (Barnyardgrass) [7]; 0.2500 kg/ha) was 7.0, the ZEAMX rating (ZEAMX (Corn, Field); 0.0156 kg/ha) was 0.0 and the ZEAMX rating (ZEAMX (Corn, Field); 0.0313 kg/ha) was 0.0. For the same compound, the ZEAMX rating (ZEAMX (Corn, Field); 0.0625 kg/ha) was 0.0, the ZEAMX rating (ZEAMX (Corn, Field); 0.1250 kg/ha) was 0.0 and the ZEAMX rating (ZEAMX (Corn, Field); 0.2500 kg/ha) was 3.0. For the same compound, the “Herbicidal rating ECHORC” value ([8]; Rate 0.0313 kg/ha) was 4.0, the “Herbicidal rating ECHORC” value ([8]; Rate 0.0625 kg/ha) was 4.0 and the “Herbicidal rating ECHORC” value ([8]; Rate 0.1250 kg/ha) was 6.0. The “Herbicidal rating ECHORC” value ([8]; Rate 0.2500 kg/ha) was 9.0.

Source: patent US20020137929A1, “1 - (3-heterocyclylphenyl) isothiourea, -isourea, -guanidine and -amidine herbicidal agents” (Intellectual Property Department, BASF Aktiengesellschaft, priority 1998, published 2002)
